These results are taken from PMC3102611, “The inhibition of the mammalian DNA methyltransferase 3a (Dnmt3a) by dietary black tea and coffee polyphenols” (2011).

For this assay, the target named is T1, Dnmt3a (Mus musculus, UniProt O88508).
T1 construct: C-terminal catalytic domain (Dnmt3a-C)
As to the kind of experiment: Biotin-avidin DNA methylation kinetics assay with [methyl-3H]AdoMet, purified Dnmt3a-C. In kind it is biochemical.

T1 sequence (O88508 608-908 limits assumed): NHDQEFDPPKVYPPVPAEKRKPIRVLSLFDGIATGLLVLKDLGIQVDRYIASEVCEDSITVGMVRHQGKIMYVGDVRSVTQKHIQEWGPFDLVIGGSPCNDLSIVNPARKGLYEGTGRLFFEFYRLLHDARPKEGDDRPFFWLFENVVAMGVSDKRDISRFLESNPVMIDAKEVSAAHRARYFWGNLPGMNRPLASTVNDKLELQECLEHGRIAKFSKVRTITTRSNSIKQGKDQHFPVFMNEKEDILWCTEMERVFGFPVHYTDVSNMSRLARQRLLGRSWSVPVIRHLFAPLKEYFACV

With `COC(=O)[C@]1(OC(=O)/C=C/c2ccc(O)c(O)c2)C[C@H](OC(=O)/C=C/c2ccc(O)c(O)c2)[C@H]2O[C@@](C)(OC)[C@](C)(OC)O[C@@H]2C1` [N12, 1,3-dicaffeoyl-muco-quinic acid diacetal], the half-inhibitory concentration (IC50) (commonly the concentration needed to halve the response being measured) was 35 µM.
